Where “and” joins values, the source holds several entries; their conditions need not be identical. Equal values may be shown once. Inconclusive results and toxic doses are left out. How the source made its calls: active means survival T/C of 150% or more; inactive means T/C below 125% in these data.
Test system: P388 leukemia ip, CD2F1 mice, survival T/C
Experiment: NCI In Vivo Anticancer Drug Screen. Data for tumor model P388 Leukemia (intraperitoneal) in CD2F1 (CDF1) mice
Conditions: endpoint: median survival time, higher = longer survival
Method in brief: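 Mice carrying the transplanted tumor received test compound or vehicle. Survival was recorded in each group, and the value is the treated-group measurement divided by that of the vehicle-treated control group.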

[1] = dose: 25.0 mg/kg/injection, schedule: Q01DX009 (ip), vehicle: Klucel (hydroxypropylcellulose) (HPC)
[2] = dose: 50.0 mg/kg/injection, schedule: Q01DX009 (ip), vehicle: Klucel (hydroxypropylcellulose) (HPC)
[3] = dose: 100.0 mg/kg/injection, schedule: Q01DX009 (ip), vehicle: Klucel (hydroxypropylcellulose) (HPC)
[4] = dose: 200.0 mg/kg/injection, schedule: Q01DX009 (ip), vehicle: Klucel (hydroxypropylcellulose) (HPC)
[5] = dose: 25.0 mg/kg/injection, schedule: Q01DX009 (ip), vehicle: saline with Tween-80
[6] = dose: 100.0 mg/kg/injection, schedule: Q01DX009 (ip), vehicle: saline with Tween-80
[7] = dose: 60.0 mg/kg/injection, schedule: Q01DX005 (ip), vehicle: saline with Tween-80
[8] = dose: 120.0 mg/kg/injection, schedule: Q01DX005 (ip), vehicle: saline with Tween-80
[9] = dose: 240.0 mg/kg/injection, schedule: Q01DX005 (ip), vehicle: saline with Tween-80

Measured: T/C

CCCn1cnc(C(=O)OC)c1O (tested in a mixture with another compound)
inactive: dose: 100.0 mg/kg/injection, schedule: Q04DX002 (ip), vehicle: water 101 % of control | dose: 200.0 mg/kg/injection, schedule: Q04DX002 (ip), vehicle: water 104 % of control | dose: 400.0 mg/kg/injection, schedule: Q04DX002 (ip), vehicle: water 101 % of control

NNC(=O)COCC(=O)NN
inactive: [1] 106 % of control | [2] 100 % of control | [3] 104 % of control | [4] 100 % of control

CSC(=S)n1nc(-c2ccccc2)c(N=Nc2ccc(C)cc2)c1-c1ccccc1
inactive: dose: 50.0 mg/kg/injection, schedule: Q01DX005 (ip), vehicle: saline with Tween-80 98 % of control | dose: 100.0 mg/kg/injection, schedule: Q01DX005 (ip), vehicle: saline with Tween-80 91 % of control | dose: 200.0 mg/kg/injection, schedule: Q01DX005 (ip), vehicle: saline with Tween-80 93 % of control

O=S(=O)(c1ccc(Cl)c(Cl)c1)N(c1cccc(C(F)(F)F)c1)S(=O)(=O)c1ccc(Cl)c(Cl)c1
inactive: dose: 6.25 mg/kg/injection, schedule: Q01DX009 (ip), vehicle: saline with Tween-80 100 % of control | dose: 12.5 mg/kg/injection, schedule: Q01DX009 (ip), vehicle: saline with Tween-80 94 % of control | [5] 97 % of control

CS(=O)(=O)c1ccc(/C(=N/N)c2ccccc2)cc1
inactive: dose: 12.5 mg/kg/injection, schedule: Q01DX009 (ip), vehicle: Klucel (hydroxypropylcellulose) (HPC) 103 % of control | [1] 102 % of control | [2] 101 % of control and 93 % of control

Cc1cc(N=Nc2ccc(NC(=O)c3ccc(N)cc3)cc2C)ccc1N=Nc1ccc2c(O)c(N=Nc3ccc(S(=O)(=O)O)cc3)c(S(=O)(=O)O)cc2c1
inactive: dose: 12.5 mg/kg/injection, schedule: Q01DX005 (ip), vehicle: saline 100 % of control | dose: 25.0 mg/kg/injection, schedule: Q01DX005 (ip), vehicle: saline 105 % of control | dose: 50.0 mg/kg/injection, schedule: Q01DX005 (ip), vehicle: saline 105 % of control and 108 % of control | dose: 100.0 mg/kg/injection, schedule: Q01DX005 (ip), vehicle: saline 103 % of control

Cc1ccc(C2=C(C#N)C(c3ccccc3)C(C#N)=C(N)O2)cc1 (stereo not given)
inactive: dose: 50.0 mg/kg/injection, schedule: Q01DX005 (ip), vehicle: Klucel (hydroxypropylcellulose) (HPC) 97 % of control | dose: 100.0 mg/kg/injection, schedule: Q01DX005 (ip), vehicle: Klucel (hydroxypropylcellulose) (HPC) 95 % of control

O=C1NC(=O)N(c2ccccc2)C(=O)/C1=C/c1ccc2c(c1)CCC2
inactive: dose: 60.0 mg/kg/injection, schedule: Q01DX005 (ip), vehicle: Klucel (hydroxypropylcellulose) (HPC) 95 % of control | dose: 120.0 mg/kg/injection, schedule: Q01DX005 (ip), vehicle: Klucel (hydroxypropylcellulose) (HPC) 97 % of control | dose: 240.0 mg/kg/injection, schedule: Q01DX005 (ip), vehicle: Klucel (hydroxypropylcellulose) (HPC) 108 % of control

O=C(Nc1ccc(Cl)cc1)O/N=C/c1ccc2c(c1)OCO2
inactive: dose: 50.0 mg/kg/injection, schedule: Q01DX009 (ip), vehicle: saline with Tween-80 93 % of control | [6] 91 % of control | dose: 200.0 mg/kg/injection, schedule: Q01DX009 (ip), vehicle: saline with Tween-80 86 % of control

OC1(C2CCCC2)C2C=CC1C1CCCCCCC12 (stereo not given)
inactive: dose: 100.0 mg/kg/injection, schedule: Q04DX002 (ip), vehicle: saline with Tween-80 100 % of control | dose: 200.0 mg/kg/injection, schedule: Q04DX002 (ip), vehicle: saline with Tween-80 100 % of control | dose: 400.0 mg/kg/injection, schedule: Q04DX002 (ip), vehicle: saline with Tween-80 97 % of control

CC(=O)Nc1ccc(NC(=S)Nc2ccccc2C(F)(F)F)cc1
inactive: [2] 96 % of control | [3] 92 % of control | [4] 87 % of control

CC(C)C(=O)CC1(O)C(=O)Nc2ccc([N+](=O)[O-])cc21 (stereo not given)
inactive: [7] 101 % of control | [8] 93 % of control | [9] 91 % of control

C=Cc1nc(=O)[nH]c(=O)[nH]1
inactive: dose: 100.0 mg/kg/injection, schedule: Q04DX002 (ip), vehicle: Klucel (hydroxypropylcellulose) (HPC) 97 % of control | dose: 100.0 mg/kg/injection, schedule: Q04DX002 (ip), vehicle: saline 101 % of control | dose: 200.0 mg/kg/injection, schedule: Q04DX002 (ip), vehicle: Klucel (hydroxypropylcellulose) (HPC) 91 % of control | dose: 200.0 mg/kg/injection, schedule: Q04DX002 (ip), vehicle: saline 108 % of control | dose: 400.0 mg/kg/injection, schedule: Q04DX002 (ip), vehicle: Klucel (hydroxypropylcellulose) (HPC) 97 % of control | dose: 400.0 mg/kg/injection, schedule: Q04DX002 (ip), vehicle: saline 98 % of control

O=C1CCC(c2nc3ccccc3[nH]2)N1Cc1ccc(Cl)cc1 (stereo not given)
inactive: [7] 108 % of control | [8] 90 % of control | [9] 86 % of control

CCNCc1c2c(O)c3c(O)c(C)c4c(c3c1O)C(=O)C(C)(O/C=C/C(OC)C(C)C(OC(C)=O)C(C)C(O)C(C)C(O)C(C)/C=C/C=C(/C)C(=O)N2)O4 (stereo not given)
inactive: dose: 25.0 mg/kg/injection, schedule: Q01DX009 (ip), vehicle: other 89 % of control | dose: 50.0 mg/kg/injection, schedule: Q01DX009 (ip), vehicle: other 89 % of control | dose: 100.0 mg/kg/injection, schedule: Q01DX009 (ip), vehicle: other 89 % of control | dose: 200.0 mg/kg/injection, schedule: Q01DX009 (ip), vehicle: other 89 % of control | dose: 400.0 mg/kg/injection, schedule: Q01DX009 (ip), vehicle: other 90 % of control

COC(=O)c1nc2[nH]n(-c3ccccc3)c(=O)c2c2c1CCCCCCCCCC2
inactive: dose: 60.0 mg/kg/injection, schedule: Q01DX005 (ip), vehicle: saline 102 % of control | dose: 120.0 mg/kg/injection, schedule: Q01DX005 (ip), vehicle: saline 96 % of control | dose: 240.0 mg/kg/injection, schedule: Q01DX005 (ip), vehicle: saline 96 % of control

CC1=CC(=O)[C@@H](O)[C@]2(C)[C@H]3[C@@]4(O)OC[C@]35[C@H]([C@@H](CO)[C@H]4O)[C@@H](OC3OC(CO)C(O)C(O)C3O)C(=O)O[C@@H]5C[C@@H]12 (stereo not given in full)
inactive: dose: 0.25 mg/kg/injection, schedule: Q01DX005 (ip), vehicle: Klucel (hydroxypropylcellulose) (HPC) 99 % of control | dose: 0.5 mg/kg/injection, schedule: Q01DX005 (ip), vehicle: Klucel (hydroxypropylcellulose) (HPC) 99 % of control | dose: 1.0 mg/kg/injection, schedule: Q01DX005 (ip), vehicle: Klucel (hydroxypropylcellulose) (HPC) 98 % of control | dose: 1.87 mg/kg/injection, schedule: Q01DX005 (ip), vehicle: Klucel (hydroxypropylcellulose) (HPC) 96 % of control | dose: 2.0 mg/kg/injection, schedule: Q01DX005 (ip), vehicle: Klucel (hydroxypropylcellulose) (HPC) 100 % of control

NC(=O)c1ccc(NC(=O)/C=C/C(=O)Nc2ccc(C(N)=O)cn2)nc1
inactive: dose: 1.65 mg/kg/injection, schedule: Q01DX009 (ip), vehicle: saline with Tween-80 109 % of control | dose: 2.5 mg/kg/injection, schedule: Q01DX009 (ip), vehicle: saline with Tween-80 118 % of control | dose: 2.5 mg/kg/injection, schedule: Q04DX003 (ip), vehicle: saline with Tween-80 100 % of control | dose: 3.75 mg/kg/injection, schedule: Q01DX009 (ip), vehicle: saline with Tween-80 104 % of control | dose: 5.0 mg/kg/injection, schedule: Q04DX003 (ip), vehicle: saline with Tween-80 100 % of control | dose: 10.0 mg/kg/injection, schedule: Q04DX003 (ip), vehicle: saline with Tween-80 100 % of control and 118 % of control | dose: 20.0 mg/kg/injection, schedule: Q04DX003 (ip), vehicle: saline with Tween-80 100 % of control | dose: 625.0 micrograms/kg/injection, schedule: Q01DX009 (ip), vehicle: saline with Tween-80 104 % of control | dose: 1250.0 micrograms/kg/injection, schedule: Q01DX009 (ip), vehicle: saline with Tween-80 122 % of control

CN1CCN(CN2C(=O)C3C4C=CC(C3C2=O)C2C(=O)N(CN3CCN(C)CC3)C(=O)C42)CC1 (stereo not given)
inactive: dose: 12.5 mg/kg/injection, schedule: Q01DX009 (ip), vehicle: saline 108 % of control | dose: 25.0 mg/kg/injection, schedule: Q01DX009 (ip), vehicle: saline 105 % of control | dose: 50.0 mg/kg/injection, schedule: Q01DX009 (ip), vehicle: saline 108 % of control | dose: 100.0 mg/kg/injection, schedule: Q01DX009 (ip), vehicle: saline 113 % of control | dose: 200.0 mg/kg/injection, schedule: Q01DX009 (ip), vehicle: saline 122 % of control

CNc1ccccc1C(=O)N1CCc2c([nH]c3ccccc23)C1=O
inactive: [5] 98 % of control | [6] 93 % of control
